Measurements reported in PubChem BioAssay (NCI).
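1) Cells in 96-well plates. 2) Compound, 48 h, 5 concentrations. 3) Linear interpolation between surrounding doses. 4) Unreached endpoint = highest concentration. Abbreviation: GI50, concentration required for 50% inhibition of growth. TGI: concentration producing complete growth inhibition.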

Key:
Test in all cases: NCI-60 cell line screen, 48 h
A549 NSCLC = test system: A549 NSCLC
T-47D breast = test system: T-47D breast
UACC-62 melanoma = test system: UACC-62 melanoma
SNB-75 CNS = test system: SNB-75 CNS
HCC-2998 colon = test system: HCC-2998 colon
SK-OV-3 ovarian = test system: SK-OV-3 ovarian
COLO 205 colon = test system: COLO 205 colon
SF-295 CNS = test system: SF-295 CNS
TK-10 renal = test system: TK-10 renal
NCI-H460 lung = test system: NCI-H460 lung
HOP-92 NSCLC = test system: HOP-92 NSCLC
DU-145 prostate = test system: DU-145 prostate
OVCAR-3 ovarian = test system: OVCAR-3 ovarian
786-0 renal = test system: 786-0 renal
OVCAR-8 ovarian = test system: OVCAR-8 ovarian
NCI-H23 lung = test system: NCI-H23 lung
OVCAR-5 ovarian = test system: OVCAR-5 ovarian
LOX IMVI melanoma = test system: LOX IMVI melanoma
SF-539 CNS = test system: SF-539 CNS
RPMI-8226 leukemia = test system: RPMI-8226 leukemia
NCI-H522 lung = test system: NCI-H522 lung
HT29 colon = test system: HT29 colon
RXF 393 renal = test system: RXF 393 renal
A498 renal = test system: A498 renal
PC-3 prostate = test system: PC-3 prostate
CCRF-CEM leukemia = test system: CCRF-CEM leukemia
NCI/ADR-RES ovarian = test system: NCI/ADR-RES ovarian
IGROV1 ovarian = test system: IGROV1 ovarian
MCF7 breast = test system: MCF7 breast
SW-620 colon = test system: SW-620 colon
HOP-62 NSCLC = test system: HOP-62 NSCLC
NCI-H226 lung = test system: NCI-H226 lung
UACC-257 melanoma = test system: UACC-257 melanoma
MDA-MB-231 breast = test system: MDA-MB-231 breast
BT-549 breast = test system: BT-549 breast
SK-MEL-5 melanoma = test system: SK-MEL-5 melanoma
SNB-19 CNS = test system: SNB-19 CNS
K-562 leukemia = test system: K-562 leukemia
SK-MEL-28 melanoma = test system: SK-MEL-28 melanoma
KM12 colon = test system: KM12 colon
MOLT-4 leukemia = test system: MOLT-4 leukemia
HS 578T breast = test system: HS 578T breast
ACHN renal = test system: ACHN renal
MDA-MB-435 = test system: MDA-MB-435
SK-MEL-2 melanoma = test system: SK-MEL-2 melanoma
SN12C renal = test system: SN12C renal
EKVX NSCLC = test system: EKVX NSCLC
OVCAR-4 ovarian = test system: OVCAR-4 ovarian
SR leukemia = test system: SR leukemia
M14 melanoma = test system: M14 melanoma
HL-60(TB) leukemia = test system: HL-60(TB) leukemia
U251 CNS = test system: U251 CNS
HCT-116 colon = test system: HCT-116 colon
UO-31 renal = test system: UO-31 renal
SF-268 CNS = test system: SF-268 CNS
HCT-15 colon = test system: HCT-15 colon
MALME-3M melanoma = test system: MALME-3M melanoma
CAKI-1 renal = test system: CAKI-1 renal

In the case of COc1cc(/C=N/Nc2ncnc3[nH]ncc23)ccc1O, the GI50 (A549 NSCLC) is reported as greater than 25 µM, the TGI (A549 NSCLC) is reported as greater than 25 µM and the GI50 (T-47D breast) is reported as 6.82 µM. For the same compound, the TGI (T-47D breast) was greater than 25 µM, the GI50 (UACC-62 melanoma) was 11.3 µM and the TGI (UACC-62 melanoma) was greater than 25 µM. For the same compound, the GI50 (SNB-75 CNS) was 4.83 µM, the TGI (SNB-75 CNS) was greater than 16.6 µM and the GI50 (HCC-2998 colon) was greater than 25 µM. For the same compound, the TGI (HCC-2998 colon) was greater than 25 µM, the GI50 (SK-OV-3 ovarian) was 17.9 µM and the TGI (SK-OV-3 ovarian) was greater than 25 µM. For the same compound, the GI50 (COLO 205 colon) was greater than 25 µM, the TGI (COLO 205 colon) was greater than 25 µM and the GI50 (SF-295 CNS) was 18.6 µM. It also gave a TGI (SF-295 CNS) greater than 25 µM, a GI50 (TK-10 renal) of 9.15 µM and a TGI (TK-10 renal) greater than 22.1 µM. The GI50 (NCI-H460 lung) was 24.7 µM, the TGI (NCI-H460 lung) was greater than 25 µM and the GI50 (HOP-92 NSCLC) was 6.77 µM. The TGI (HOP-92 NSCLC) was greater than 22.1 µM, the GI50 (DU-145 prostate) was greater than 23.9 µM and the TGI (DU-145 prostate) was greater than 25 µM. For the same compound, the GI50 (OVCAR-3 ovarian) was greater than 22.7 µM, the TGI (OVCAR-3 ovarian) was greater than 25 µM and the GI50 (786-0 renal) was 11.8 µM. The TGI (786-0 renal) was greater than 25 µM, the GI50 (OVCAR-8 ovarian) was greater than 25 µM and the TGI (OVCAR-8 ovarian) was greater than 25 µM. It also gave a GI50 (NCI-H23 lung) greater than 21.7 µM, a TGI (NCI-H23 lung) greater than 25 µM and a GI50 (OVCAR-5 ovarian) greater than 19.4 µM. The TGI (OVCAR-5 ovarian) was greater than 25 µM, the GI50 (LOX IMVI melanoma) was 9.26 µM and the TGI (LOX IMVI melanoma) was greater than 25 µM. It also gave a GI50 (SF-539 CNS) of 7.78 µM, a TGI (SF-539 CNS) greater than 21.8 µM and a GI50 (RPMI-8226 leukemia) greater than 25 µM. For the same compound, the TGI (RPMI-8226 leukemia) was greater than 25 µM, the GI50 (NCI-H522 lung) was 11 µM and the TGI (NCI-H522 lung) was greater than 25 µM. For the same compound, the GI50 (HT29 colon) was 12.6 µM, the TGI (HT29 colon) was greater than 25 µM and the GI50 (RXF 393 renal) was 5.24 µM. For the same compound, the TGI (RXF 393 renal) was greater than 18.9 µM, the GI50 (A498 renal) was 8.93 µM and the TGI (A498 renal) was greater than 25 µM. It also gave a GI50 (PC-3 prostate) greater than 20.6 µM, a TGI (PC-3 prostate) greater than 25 µM and a GI50 (CCRF-CEM leukemia) of 14.8 µM. The TGI (CCRF-CEM leukemia) was greater than 25 µM, the GI50 (NCI/ADR-RES ovarian) was greater than 25 µM and the TGI (NCI/ADR-RES ovarian) was greater than 25 µM. For the same compound, the GI50 (IGROV1 ovarian) was 8.97 µM, the TGI (IGROV1 ovarian) was greater than 25 µM and the GI50 (MCF7 breast) was 11.4 µM. It also gave a TGI (MCF7 breast) greater than 25 µM, a GI50 (SW-620 colon) greater than 25 µM and a TGI (SW-620 colon) greater than 25 µM. It also gave a GI50 (HOP-62 NSCLC) of 19.8 µM, a TGI (HOP-62 NSCLC) greater than 25 µM and a GI50 (NCI-H226 lung) greater than 25 µM. For the same compound, the TGI (NCI-H226 lung) was greater than 25 µM, the GI50 (UACC-257 melanoma) was greater than 21.8 µM and the TGI (UACC-257 melanoma) was greater than 25 µM. For the same compound, the GI50 (MDA-MB-231 breast) was greater than 20.1 µM, the TGI (MDA-MB-231 breast) was greater than 25 µM and the GI50 (BT-549 breast) was greater than 23.6 µM. The TGI (BT-549 breast) was greater than 25 µM, the GI50 (SK-MEL-5 melanoma) was 17.5 µM and the TGI (SK-MEL-5 melanoma) was greater than 25 µM. It also gave a GI50 (SNB-19 CNS) greater than 25 µM, a TGI (SNB-19 CNS) greater than 25 µM and a GI50 (K-562 leukemia) of 9.94 µM. The TGI (K-562 leukemia) was greater than 25 µM, the GI50 (SK-MEL-28 melanoma) was greater than 20.1 µM and the TGI (SK-MEL-28 melanoma) was greater than 25 µM. It also gave a GI50 (KM12 colon) of 12.6 µM, a TGI (KM12 colon) greater than 25 µM and a GI50 (MOLT-4 leukemia) of 12.4 µM. It also gave a TGI (MOLT-4 leukemia) greater than 25 µM, a GI50 (HS 578T breast) of 6.53 µM and a TGI (HS 578T breast) greater than 20.5 µM. It also gave a GI50 (ACHN renal) of 8.01 µM, a TGI (ACHN renal) greater than 25 µM and a GI50 (MDA-MB-435) of 7.95 µM. It also gave a TGI (MDA-MB-435) greater than 25 µM, a GI50 (SK-MEL-2 melanoma) of 6.53 µM and a TGI (SK-MEL-2 melanoma) of 17.1 µM. For the same compound, the GI50 (SN12C renal) was 13.6 µM, the TGI (SN12C renal) was greater than 25 µM and the GI50 (EKVX NSCLC) was greater than 23.2 µM. For the same compound, the TGI (EKVX NSCLC) was greater than 25 µM, the GI50 (OVCAR-4 ovarian) was greater than 25 µM and the TGI (OVCAR-4 ovarian) was greater than 25 µM. It also gave a GI50 (SR leukemia) of 13.1 µM, a TGI (SR leukemia) greater than 25 µM and a GI50 (M14 melanoma) of 15.7 µM. For the same compound, the TGI (M14 melanoma) was greater than 25 µM, the GI50 (HL-60(TB) leukemia) was greater than 23.6 µM and the TGI (HL-60(TB) leukemia) was greater than 25 µM. It also gave a GI50 (U251 CNS) of 24.7 µM, a TGI (U251 CNS) greater than 25 µM and a GI50 (HCT-116 colon) of 19.6 µM. It also gave a TGI (HCT-116 colon) greater than 25 µM, a GI50 (UO-31 renal) of 5.96 µM and a TGI (UO-31 renal) greater than 25 µM. It also gave a GI50 (SF-268 CNS) of 21.4 µM, a TGI (SF-268 CNS) greater than 25 µM and a GI50 (HCT-15 colon) of 24.6 µM. It also gave a TGI (HCT-15 colon) greater than 25 µM, a GI50 (MALME-3M melanoma) of 11.7 µM and a TGI (MALME-3M melanoma) greater than 25 µM. The GI50 (CAKI-1 renal) was 6.93 µM and the TGI (CAKI-1 renal) was greater than 25 µM.
In the case of c1ccc(CSc2nc(N3CCCCC3)c3cn[nH]c3n2)cc1, the TGI (A549 NSCLC) is reported as greater than 100 µM, the TGI (T-47D breast) is reported as greater than 100 µM and the TGI (UACC-62 melanoma) is reported as 32 µM. It also gave a TGI (SNB-75 CNS) of 46.8 µM, a TGI (HCC-2998 colon) of 45 µM and a TGI (SK-OV-3 ovarian) greater than 100 µM. The TGI (COLO 205 colon) was 62.4 µM, the TGI (SF-295 CNS) was 63.7 µM and the TGI (TK-10 renal) was 70.2 µM. It also gave a TGI (NCI-H460 lung) of 64.5 µM, a TGI (HOP-92 NSCLC) of 72.8 µM and a TGI (DU-145 prostate) greater than 100 µM. For the same compound, the TGI (OVCAR-3 ovarian) was 69.1 µM, the TGI (786-0 renal) was 79.8 µM and the TGI (OVCAR-8 ovarian) was 74.3 µM. It also gave a TGI (NCI-H23 lung) of 66.5 µM, a TGI (OVCAR-5 ovarian) greater than 100 µM and a TGI (LOX IMVI melanoma) of 49.1 µM. For the same compound, the TGI (SF-539 CNS) was 34.9 µM, the TGI (RPMI-8226 leukemia) was 72.8 µM and the TGI (NCI-H522 lung) was 36.4 µM. For the same compound, the TGI (HT29 colon) was greater than 100 µM, the TGI (RXF 393 renal) was 35.4 µM and the TGI (A498 renal) was 34.3 µM. It also gave a TGI (PC-3 prostate) of 51 µM, a TGI (CCRF-CEM leukemia) greater than 100 µM and a TGI (NCI/ADR-RES ovarian) greater than 100 µM. For the same compound, the TGI (IGROV1 ovarian) was 41.8 µM, the TGI (MCF7 breast) was 72.4 µM and the TGI (SW-620 colon) was 44.5 µM. The TGI (HOP-62 NSCLC) was 43.3 µM, the TGI (NCI-H226 lung) was 44.9 µM and the TGI (UACC-257 melanoma) was 35.4 µM. It also gave a TGI (MDA-MB-231 breast) of 36.8 µM, a TGI (BT-549 breast) of 34.6 µM and a TGI (SK-MEL-5 melanoma) of 31 µM. For the same compound, the TGI (SNB-19 CNS) was 79 µM, the TGI (K-562 leukemia) was greater than 100 µM and the TGI (SK-MEL-28 melanoma) was 41.3 µM. The TGI (KM12 colon) was 35.4 µM, the TGI (MOLT-4 leukemia) was greater than 100 µM and the TGI (HS 578T breast) was 43.9 µM. It also gave a TGI (ACHN renal) of 94.7 µM, a TGI (MDA-MB-435) of 47.9 µM and a TGI (SK-MEL-2 melanoma) of 32.5 µM. The TGI (SN12C renal) was 42 µM, the TGI (EKVX NSCLC) was 65.3 µM and the TGI (OVCAR-4 ovarian) was greater than 100 µM. It also gave a TGI (SR leukemia) greater than 100 µM, a TGI (M14 melanoma) of 37 µM and a TGI (HL-60(TB) leukemia) greater than 100 µM. It also gave a TGI (U251 CNS) of 40.7 µM, a TGI (HCT-116 colon) of 44.1 µM and a TGI (UO-31 renal) of 42.8 µM. The TGI (SF-268 CNS) was 61.3 µM, the TGI (HCT-15 colon) was greater than 100 µM and the TGI (MALME-3M melanoma) was 37.3 µM. For the same compound, the TGI (CAKI-1 renal) was greater than 100 µM.
